Reference: patent US12077531B2, “Imidazopyridinone compound” (KISSEI PHARMACEUTICAL CO., LTD., priority 2018, dated 2024)
Read-outs that look alike come from different tables or passages of the source.

Experiments:
[1] = tested on: TNBS induced colitis model rat; test: Therapeutic effect in TNBS induced colitis model rat (intestinal permeability of FITC); format: in vivo; conditions: po, 72 h, 3 mg/kg orally once a day for 3 days, SD rats, mean, test compounds-free group 0, TNBS-untreated group 100, read-out: Inhibition (%): suppressive rate on the intestinal permeability
Protocol: Test Example 2 Therapeutic Effect in Colitis Model
(1) TNBS Induced Colitis Model Rat
SD rats: 8-weeks-old male SLC (Japan SLC) were used. Under pentobarbital anesthesia, 300 μL of TNBS (28 mg/mL) prepared by 50% ethanol was administered at a point 8 cm from anus in large intestine to cause inflammation. To the solvent-treated group was administrated 300 μL of 50% ethanol. Animals were fasted for 48 hours prior to administration of TNBS. Test compounds (3 mg/kg) prepared by 0.05% methylcellulose solution were orally administered once a day from next day, and it was administered for a total of 3 days. After administering for 3 days, 50 mg/kg FITC was orally administered at 4 hours after administration. Blood samples were collected from jugular vein under isoflurane anesthesia after 4 hours. The serum was centrifuged and fluorescence intensity was detected by PHERAstar FSX (BMG Labtech) to measure the concentration of FITC permeating into circulating blood through the mesentery. The suppressive rate on the intestinal permeability of test compounds was calculated based on the value of test compounds-free group as 0 and the value of TNBS-untreated group as 100.

[2] = Rat PK study: concentration of compounds in large intestine tissue and plasma; format: in vivo; conditions: male, SD, 3 mg/kg oral; for Kp at 8 h: large intestine tissue / plasma, read-out: C/P: ratio of the above Colon and Plasma; for AUC / Cmax: non-fasted; for AUC: read-out: AUC: area under the plasma test compound concentration-time curve (converted); for Cmax: read-out: Cmax: maximum plasma concentration of test compounds in the case of oral administration
Protocol: Test Example 3 Concentration of Compounds in Large Intestine Tissue
Test compounds (3 mg/kg/5 mL) prepared by 0.05% methylcellulose were orally administered to non-fasted rats (SD, 8-weeks-old, male, Japan SLC). Blood samples were collected from jugular vein at 0.25, 0.5, 1, 2, 4, 6 and 8 hours after the administration. Laparotomy was performed under isoflurane anesthesia and large intestine was isolated. Collected distal large intestine (about 5 cm) was cut open, and then the large intestine was washed with saline on a dish. After washing, the large intestine was minced by a small scissors. About 150 mg thereof was moved to tube. To the tube was added 100 μL of saline, the mixture was homogenized using shake master (1000 rpm×30 minutes). Samples were prepared by the addition with quadruple volume of saline as final volume. The concentrations of the test compound in large intestine tissue and plasma were measured through a quantitative analysis using liquid chromatography-mass spectrometry (LC/MS).

[3] = target: human PHD2184-418 (Homo sapiens (Human), UniProt Q9GZT9); test: PHD2 inhibitory test (fluorescence polarization, binding between PHD2 and HIF-1α); conditions: human PHD2184-418, FITC-labeled HIF-1α556-574, 2 μM 2-oxoglutarate, 37° C. 60 minutes
Chain of human PHD2184-418 (Q9GZT9 184-418): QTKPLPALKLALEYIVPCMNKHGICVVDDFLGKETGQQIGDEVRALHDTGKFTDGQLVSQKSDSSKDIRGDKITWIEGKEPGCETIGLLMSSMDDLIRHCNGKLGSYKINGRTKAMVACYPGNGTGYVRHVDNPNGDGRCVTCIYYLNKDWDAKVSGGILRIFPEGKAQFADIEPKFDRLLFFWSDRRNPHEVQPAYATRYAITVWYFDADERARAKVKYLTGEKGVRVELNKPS
Summary of the method: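 N-His-tagged human PHD2 (residues 184–418, E. coli-expressed) was preincubated with compound, then FITC-Ahx-HIF-1α556-574 peptide was added in pH 7.4 HEPES buffer with 10 μM MnCl2 and 2 μM 2-oxoglutarate. After 60 min at 37 °C, fluorescence polarization (ex 470/em 530 nm) was read. Inhibition was calculated against compound-free wells.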

[4] = large intestine tissue (distal large intestine), read-out: Colon: concentrations of the test compound in large intestine tissue after 8 hours
[5] = plasma, read-out: Plasma: plasma test compound concentration after 8 hours

| concentration at 8 h [2, 4] [ng/g] | Kp at 8 h [2] | concentration at 8 h [2, 5] [ng/mL] | AUC ([2]; plasma) [µg·h/mL] | Cmax ([2]; plasma) [ng/mL] | IC50 [3] [µM] | Structure (SMILES) | inhibition in vivo at 3 mg/kg [1] [%] |
| --- | --- | --- | --- | --- | --- | --- | --- |
| 214 | 71 | 3 | 0.0348 | 7 | 0.34 | Cn1ccnc1CN1CC[C@H](n2c(=O)n(-c3ccc(-c4ccc(C(=O)O)cc4)cc3O)c3cccnc32)C1 [Example 39, (S)-3′-Hydroxy-4′-(3-(1-((1-methyl-1H-imidazol-2-yl)methyl)pyrrolidin-3-yl)-2-oxo-2,3-dihydro-1H-imidazo[4,5-b]pyridin-1-yl)-[1,1′-biphenyl]-4-carboxylic acid] | 95 |
| 209 | > 209 | < 1 | – | < 1 | 0.76 | Cn1ccnc1CN1CC[C@H](n2c(=O)n(-c3ccc(-c4ccc(C(=O)O)cc4)c(O)c3)c3cccnc32)C1 [Example 40, (S)-2′-Hydroxy-4′-(3-(1-((1-methyl-1H-imidazol-2-yl)methyl)pyrrolidin-3-yl)-2-oxo-2,3-dihydro-1H-imidazo[4,5-b]pyridin-1-yl)-[1,1′-biphenyl]-4-carboxylic acid] | 84 |
| – | – | – | – | – | 1.46 | Cn1ccnc1CN1CC[C@H](n2c(=O)n(-c3ccc(-c4ccc(C(=O)O)cc4)nc3)c3cccnc32)C1 [Example 41, (S)-4-(5-(3-(1-((1-Methyl-1H-imidazol-2-yl)methyl)pyrrolidin-3-yl)-2-oxo-2,3-dihydro-1H-imidazo[4,5-b]pyridin-1-yl)pyridin-2-yl)benzoic acid] | 74 |
| 84 | 42 | 2 | 0.0352 | 8 | 0.2 | O=C(O)c1ccc(-c2ccc(-n3c(=O)n([C@H]4CCN(Cc5cc(C(=O)O)ccn5)C4)c4ncccc43)cc2)cc1 [Example 43, (S)-2-((3-(1-(4′-Carboxy-[1,1′-biphenyl]-4-yl)-2-oxo-1,2-dihydro-3H-imidazo[4,5-b]pyridin-3-yl)pyrrolidin-1-yl)methyl)isonicotinic acid] | 59 |
| 87 | > 87 | < 1 | 0.00668 | 2 | 0.27 | O=C(O)c1ccc(-c2ccc(-n3c(=O)n([C@H]4CCN(Cc5cc(C(=O)O)ccn5)C4)c4ncccc43)cc2O)cc1 [Example 45, (S)-2-((3-(1-(4′-Carboxy-2-hydroxy-[1,1′-biphenyl]-4-yl)-2-oxo-1,2-dihydro-3H-imidazo[4,5-b]pyridin-3-yl)pyrrolidin-1-yl)methyl)isonicotinic acid] | 51 |
| – | – | – | – | – | 1.85 | Cn1c(C(=O)O)cnc1CN1CC[C@H](n2c(=O)n(-c3ccc(-c4ccc(NS(C)(=O)=O)cc4)cc3)c3cccnc32)C1 [Example 74, (S)-1-Methyl-2-((3-(1-(4′-(methylsulfonamido)-[1,1′-biphenyl]-4-yl)-2-oxo-1,2-dihydro-3H-imidazo[4,5-b]pyridin-3-yl)pyrrolidin-1-yl)methyl)-1H-imidazole-5-carboxylic acid] | – |
| – | – | – | – | – | 99.9 | Cc1cccnc1CN1CC[C@H](n2c(=O)n(-c3ccc(C(=O)NCC(=O)O)cc3)c3cccnc32)C1 [Example 75, (S)-(4-(3-(1-((3-Methylpyridin-2-yl)methyl)pyrrolidin-3-yl)-2-oxo-2,3-dihydro-1H-imidazo[4,5-b]pyridin-1-yl)benzoyl)glycine] | – |
| – | – | – | – | – | 9.74 | Cn1c(C(=O)O)cnc1CN1CC[C@H](n2c(=O)n(-c3ccc(-c4ccccc4)cc3)c3ccc(C(=O)NC4CCOCC4)nc32)C1 [Example 76, (S)-2-((3-(1-([1,1′-Biphenyl]-4-yl)-2-oxo-5-((tetrahydro-2H-pyran-4-yl)carbamoyl)-1,2-dihydro-3H-imidazo[4,5-b]pyridin-3-yl)pyrrolidin-1-yl)methyl)-1-methyl-1H-imidazole-5-carboxylic acid] | – |
| – | – | – | – | – | 0.61 | Cn1c(C(=O)O)cnc1CN1CC[C@H](n2c(=O)n(-c3ccc(-c4ccccc4)cc3)c3ccc(C(=O)NCC(=O)O)nc32)C1 [Example 77, (S)-2-((3-(1-([1,1′-Biphenyl]-4-yl)-5-((carboxymethyl)carbamoyl)-2-oxo-1,2-dihydro-3H-imidazo[4,5-b]pyridin-3-yl)pyrrolidin-1-yl)methyl)-1-methyl-1H-imidazole-5-carboxylic acid] | – |
| – | – | – | – | – | 11 | Cn1c(C(=O)O)cnc1CN1CC[C@H](n2c(=O)n(-c3ccc(C(=O)NCC(=O)O)nc3)c3cccnc32)C1 [Example 78, (S)-2-((3-(1-(6-((Carboxymethyl)carbamoyl)pyridin-3-yl)-2-oxo-1,2-dihydro-3H-imidazo[4,5-b]pyridin-3-yl)pyrrolidin-1-yl)methyl)-1-methyl-1H-imidazole-5-carboxylic acid] | – |
| – | – | – | – | – | 65.9 | Cn1c(C#N)cnc1CN1CC[C@H](n2c(=O)n(-c3ccc(-c4ccncc4)cc3)c3cccnc32)C1 [Example 80, (S)-1-Methyl-2-((3-(2-oxo-1-(4-(pyridin-4-yl)phenyl)-1,2-dihydro-3H-imidazo[4,5-b]pyridin-3-yl)pyrrolidin-1-yl)methyl)-1H-imidazole-5-carbonitrile] | – |
| – | – | – | – | – | 0.13 | Cn1c(C(=O)O)cnc1CN1CC[C@H](n2c(=O)n(-c3ccc(-c4ccc(O)cc4)cc3)c3cccnc32)C1 [Example 82, (S)-2-((3-(1-(4′-Hydroxy-[1,1′-biphenyl]-4-yl)-2-oxo-1,2-dihydro-3H-imidazo[4,5-b]pyridin-3-yl)pyrrolidin-1-yl)methyl)-1-methyl-1H-imidazole-5-carboxylic acid] | 96 |
| 164 | > 164 | < 1 | – | – | – | Cn1c(C(=O)O)cnc1CN1CC[C@H](n2c(=O)n(-c3ccc(-c4ccc(C(=O)O)cc4)nc3)c3cccnc32)C1 [Example 85, (S)-2-((3-(1-(6-(4-Carboxyphenyl)pyridin-3-yl)-2-oxo-1,2-dihydro-3H-imidazo[4,5-b]pyridin-3-yl)pyrrolidin-1-yl)methyl)-1-methyl-1H-imidazole-5-carboxylic acid] | 101 |
| – | – | – | – | – | 0.27 | Cn1c(C(=O)O)cnc1CN1CC[C@H](n2c(=O)n(-c3ccc(-c4ccccc4)cc3)c3cccnc32)C1 [Example 86, (S)-2-((3-(1-([1,1′-Biphenyl]-4-yl)-2-oxo-1,2-dihydro-3H-imidazo[4,5-b]pyridin-3-yl)pyrrolidin-1-yl)methyl)-1-methyl-1H-imidazole-5-carboxylic acid] | – |
| – | – | – | – | – | 3.99 | Cn1c(C(=O)O)cnc1CN1CC[C@H](n2c(=O)n(-c3ccccc3)c3cccnc32)C1 [Example 87, (S)-1-Methyl-2-((3-(2-oxo-1-phenyl-1,2-dihydro-3H-imidazo[4,5-b]pyridin-3-yl)pyrrolidin-1-yl)methyl)-1H-imidazole-5-carboxylic acid] | – |
| – | – | – | – | – | 0.27 | Cn1c(C(=O)O)cnc1CN1CC[C@@H](n2c(=O)n(-c3ccc(-c4ccc(C(=O)O)cc4)nc3)c3cccnc32)C1 [Example 88, (R)-2-((3-(1-(6-(4-Carboxyphenyl)pyridin-3-yl)-2-oxo-1,2-dihydro-3H-imidazo[4,5-b]pyridin-3-yl)pyrrolidin-1-yl)methyl)-1-methyl-1H-imidazole-5-carboxylic acid] | – |
| – | – | – | – | – | 3.17 | Cc1cccnc1CN1CC[C@H](n2c(=O)n(-c3ccc(-c4ccc(O)cc4)cc3)c3cccnc32)C1 [Example 89, (S)-1-(4′-Hydroxy-[1,1′-biphenyl]-4-yl)-3-(1-((3-methylpyridin-2-yl)methyl)pyrrolidin-3-yl)-1,3-dihydro-2H-imidazo[4,5-b]pyridin-2-one] | – |
| – | – | – | – | – | 7.46 | Cc1cccnc1CN1CC[C@H](n2c(=O)n(-c3ccc(-c4ccncc4)cc3)c3cccnc32)C1 [Example 90, (S)-3-(1-((3-Methylpyridin-2-yl)methyl)pyrrolidin-3-yl)-1-(4-(pyridin-4-yl)phenyl)-1,3-dihydro-2H-imidazo[4,5-b]pyridin-2-one] | – |
